Test results: publication PMC4546618, “Casitas B-Lineage Lymphoma RING Domain Inhibitors Protect Mice against High-Fat Diet-Induced Obesity and Insulin Resistance” (PLoS ONE, 2015)
*1 amine or outer side, *2 acyl side, *3 side chain or, on linkers, in order; H or OH if unused. Where a SMILES comes first, the peptide text is derived from it. [ ]: non-standard residue; d: D form. Phe(4-NO2) = N[C@@H](Cc1ccc([N+](=O)[O-])cc1)C(=O)O; Phe(4-N3) = [N-]=[N+]=Nc1ccc(C[C@H](N)C(=O)O)cc1; X2 = CC(=O)CN(CCCC[C@H](N[*:1])C(=O)[*:2])C(C)=O; Phe(4-CF3) = N[C@@H](Cc1ccc(C(F)(F)F)cc1)C(=O)O; Pro(trans-4-F) = O=C(O)[C@@H]1C[C@@H](F)CN1; X1 = CC(=O)N(O)CCCC[C@H](N[*:1])C(=O)[*:2]; Phe(4-NH2) = Nc1ccc(C[C@H](N)C(=O)O)cc1; Phe(3-F) = N[C@@H](Cc1cccc(F)c1)C(=O)O; Phe(3-Me) = Cc1cccc(C[C@H](N)C(=O)O)c1; Phe(4-F) = N[C@@H](Cc1ccc(F)cc1)C(=O)O; Phe(4-Me) = Cc1ccc(C[C@H](N)C(=O)O)cc1; Phe(2-F) = N[C@@H](Cc1ccccc1F)C(=O)O; Phe(2-Me) = Cc1ccccc1C[C@H](N)C(=O)O; Cha = N[C@@H](CC1CCCCC1)C(=O)O; ΔPro = O=C(O)[C@@H]1C=CCN1; Pip = O=C(O)[C@@H]1CCCCN1; Thz = O=C(O)[C@@H]1CSCN1; Aze = O=C(O)[C@@H]1CCN1

Target: T1, Cbl (RING) protein (Homo sapiens, UniProt P22681)
T1 construct: including the linker and RING domain (codon 358–457); GST (Glutathione S-Transferase); made in house
T1 sequence (P22681 358-457): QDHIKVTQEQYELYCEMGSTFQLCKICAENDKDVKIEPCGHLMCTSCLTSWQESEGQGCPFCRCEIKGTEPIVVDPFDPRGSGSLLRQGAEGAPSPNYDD
Experiment: Fluorescence polarization (FP) assay, competition with FITC-βA-PFKPP-NH2 probe
Assay type: binding
Settings: probe FITC-βA-PFKPP-NH2 100 nmol/L, Cbl (RING) protein 3 μmol/L, PBS pH 7.4
Description: Peptides and peptide mimetics were purchased from MitenChem (China) with a purity ≥ 98%. Concentrations values of reconstituted peptides were determined by amino acid analysis at the protein core facility (Chengdu Medical College). The recombinant Cbl protein was produced by the Chengdu Medical College Protein Core Facility and was described previously. The c-Cbl (RING) protein, including the linker and RING domain (codon 358–457), was tagged with Glutathione S-Transferase (GST) and purified with GSH-Sepharose (Shanghai Biopharma).
The FP assay was developed and validated previously. Briefly, fluorescein-labeled probe (FITC-βA-PFKPP-NH2, 100 nmol/L) and Cbl (RING) protein (3 μmol/L) were mixed and diluted to the final concentration using 0.01% Triton X-100 in PBS (pH = 7.4). Then, 19 μl of this master mix was loaded to each reaction well. The peptides or peptide mimetics were then loaded to the designated wells (1 μl, 10 μmol/L– 0.078 μmol/L, half-fold dilutions). The total fluorescence and polarization values were measured at an excitation wavelength of 485 nm and an emission wavelength of 538 nm using a ZS-2 plate reader. The data was fitted, and the ΔmP, Kd, and Ki values were estimated, using SigmaPlot 11.0.

Ki | Structure (SMILES)
125 ± 12.6 µM | CC(=O)N1CCC[C@H]1C(=O)N[C@@H](CC1CCCCC1)C(=O)N[C@@H](CCCCN)C(=O)N1CCC[C@H]1C(=O)N1CCC[C@H]1C(N)=O [Peptide 5, Ac-P(c)KPP-NH2] (Ac-P[Cha]KPP-NH2)
10.2 ± 1.5 µM | CC(=O)N1CCC[C@H]1C(=O)N[C@@H](Cc1ccccc1C)C(=O)N[C@@H](CCCCN)C(=O)N1CCC[C@H]1C(=O)N1CCC[C@H]1C(N)=O [Peptide 6, Ac-P(d)KPP-NH2] (Ac-P[Phe(2-Me)]KPP-NH2)
4.5 ± 1 µM | CC(=O)N1CCC[C@H]1C(=O)N[C@@H](Cc1cccc(C)c1)C(=O)N[C@@H](CCCCN)C(=O)N1CCC[C@H]1C(=O)N1CCC[C@H]1C(N)=O [Peptide 7, Ac-P(e)KPP-NH2] (Ac-P[Phe(3-Me)]KPP-NH2)
5.4 ± 2.2 µM | CC(=O)N1CCC[C@H]1C(=O)N[C@@H](Cc1ccc(C)cc1)C(=O)N[C@@H](CCCCN)C(=O)N1CCC[C@H]1C(=O)N1CCC[C@H]1C(N)=O [Peptide 8, Ac-P(f)KPP-NH2] (Ac-P[Phe(4-Me)]KPP-NH2)
3.5 ± 0.6 µM | CC(=O)N1CCC[C@H]1C(=O)N[C@@H](Cc1ccccc1F)C(=O)N[C@@H](CCCCN)C(=O)N1CCC[C@H]1C(=O)N1CCC[C@H]1C(N)=O [Peptide 9, Ac-P(g)KPP-NH2] (Ac-P[Phe(2-F)]KPP-NH2)
2.4 ± 0.5 µM | CC(=O)N1CCC[C@H]1C(=O)N[C@@H](Cc1ccc(F)cc1)C(=O)N[C@@H](CCCCN)C(=O)N1CCC[C@H]1C(=O)N1CCC[C@H]1C(N)=O [Peptide 11, Ac-P(i)KPP-NH2] (Ac-P[Phe(4-F)]KPP-NH2)
4.5 ± 0.8 µM | CC(=O)N1CCC[C@H]1C(=O)N[C@@H](Cc1ccc(N)cc1)C(=O)N[C@@H](CCCCN)C(=O)N1CCC[C@H]1C(=O)N1CCC[C@H]1C(N)=O [Peptide 12, Ac-P(j)KPP-NH2] (Ac-P[Phe(4-NH2)]KPP-NH2)
4.2 ± 0.4 µM | CC(=O)N1CCC[C@H]1C(=O)N[C@@H](Cc1ccc([N+](=O)[O-])cc1)C(=O)N[C@@H](CCCCN)C(=O)N1CCC[C@H]1C(=O)N1CCC[C@H]1C(N)=O [Peptide 13, Ac-P(k)KPP-NH2] (Ac-P[Phe(4-NO2)]KPP-NH2)
25.4 ± 0.7 µM | CC(=O)N1CCC[C@H]1C(=O)N[C@@H](Cc1ccc(C(F)(F)F)cc1)C(=O)N[C@@H](CCCCN)C(=O)N1CCC[C@H]1C(=O)N1CCC[C@H]1C(N)=O [Peptide 14, Ac-P(l)KPP-NH2] (Ac-P[Phe(4-CF3)]KPP-NH2)
8.4 ± 0.4 µM | CC(=O)N1CCC[C@H]1C(=O)N[C@@H](Cc1ccc(N=[N+]=[N-])cc1)C(=O)N[C@@H](CCCCN)C(=O)N1CCC[C@H]1C(=O)N1CCC[C@H]1C(N)=O [Peptide 15, Ac-P(m)KPP-NH2] (Ac-P[Phe(4-N3)]KPP-NH2)
15.4 ± 0.4 µM | CC(=O)N1CCC[C@H]1C(=O)N[C@H](Cc1ccccc1)C(=O)N[C@@H](CCCCN)C(=O)N1CCC[C@H]1C(=O)N1CCC[C@H]1C(N)=O [Peptide 16, Ac-P(n)KPP-NH2] (Ac-P[dF]KPP-NH2)
12.5 ± 0.9 µM | CC(=O)N1CCC[C@H]1C(=O)N[C@@H](Cc1cccc(F)c1)C(=O)N[C@@H](CCCCN)C(=O)N1CCC[C@H]1C(=O)N1CCC[C@@H]1C(N)=O [Peptide 17, Ac-P(h)KP(o)-NH2] (Ac-P[Phe(3-F)]KP[dP]-NH2)
> 250 µM | CC(=O)N1CCC[C@H]1C(=O)N[C@@H](Cc1cccc(F)c1)C(=O)N[C@@H](CCCCN)C(=O)N1CCC[C@H]1C(=O)N1CC=C[C@H]1C(N)=O [Peptide 18, Ac-P(h)KP(p)-NH2] (Ac-P[Phe(3-F)]KP[ΔPro]-NH2)
> 250 µM | CC(=O)N1CCC[C@H]1C(=O)N[C@@H](Cc1cccc(F)c1)C(=O)N[C@@H](CCCCN)C(=O)N1CCC[C@H]1C(=O)N1CC[C@H]1C(N)=O [Peptide 19, Ac-P(h)KP(q)-NH2] (Ac-P[Phe(3-F)]KP[Aze]-NH2)
3.7 ± 0.4 µM | CC(=O)N1CCC[C@H]1C(=O)N[C@@H](Cc1cccc(F)c1)C(=O)N[C@@H](CCCCN)C(=O)N1CCC[C@H]1C(=O)N1CSC[C@H]1C(N)=O [Peptide 20, Ac-P(h)KP(r)-NH2] (Ac-P[Phe(3-F)]KP[Thz]-NH2)
90.9 ± 0.7 µM | CC(=O)N1CCC[C@H]1C(=O)N[C@@H](Cc1cccc(F)c1)C(=O)N[C@@H](CCCCN)C(=O)N1CCC[C@H]1C(=O)N1CCCC[C@H]1C(N)=O [Peptide 21, Ac-P(h)KP(s)-NH2] (Ac-P[Phe(3-F)]KP[Pip]-NH2)
31.2 ± 0.4 µM | CC(=O)N1CCC[C@H]1C(=O)N[C@@H](Cc1cccc(F)c1)C(=O)N[C@@H](CCCCN)C(=O)N1CCC[C@H]1C(=O)N1C[C@H](F)C[C@H]1C(N)=O [Peptide 22, Ac-P(h)KP(t)-NH2] (Ac-P[Phe(3-F)]KP[Pro(trans-4-F)]-NH2)

Ki | Structure (SMILES)
3.5 ± 0.4 µM | CC(=O)N1CCC[C@H]1C(=O)N[C@@H](Cc1cccc(F)c1)C(=O)N[C@@H](CCCCN)C(=O)N1CCC[C@@H]1C(=O)N1CCC[C@H]1C(N)=O [Peptide 24, Ac-P(h)K(o)P-NH2] (Ac-P[Phe(3-F)]K[dP]P-NH2)
> 250 µM | CC(=O)N1CCC[C@H]1C(=O)N[C@@H](Cc1cccc(F)c1)C(=O)N[C@@H](CCCCN)C(=O)N1CC=C[C@H]1C(=O)N1CCC[C@H]1C(N)=O [Peptide 25, Ac-P(h)K(p)P-NH2] (Ac-P[Phe(3-F)]K[ΔPro]P-NH2)
> 250 µM | CC(=O)N1CCC[C@H]1C(=O)N[C@@H](Cc1cccc(F)c1)C(=O)N[C@@H](CCCCN)C(=O)N1CC[C@H]1C(=O)N1CCC[C@H]1C(N)=O [Peptide 26, Ac-P(h)K(q)P-NH2] (Ac-P[Phe(3-F)]K[Aze]P-NH2)
136 ± 11.2 µM | CC(=O)N1CCC[C@H]1C(=O)N[C@@H](Cc1cccc(F)c1)C(=O)N[C@@H](CCCCN)C(=O)N1CCCC[C@H]1C(=O)N1CCC[C@H]1C(N)=O [Peptide 28, Ac-P(h)K(s)P-NH2] (Ac-P[Phe(3-F)]K[Pip]P-NH2)
24.6 ± 5.8 µM | CC(=O)N1CCC[C@H]1C(=O)N[C@@H](Cc1cccc(F)c1)C(=O)N[C@@H](CCCCN)C(=O)N1C[C@H](F)C[C@H]1C(=O)N1CCC[C@H]1C(N)=O [Peptide 29, Ac-P(h)K(t)P-NH2] (Ac-P[Phe(3-F)]K[Pro(trans-4-F)]P-NH2)
4.5 ± 0.5 µM | CC(=O)N1CCC[C@@H]1C(=O)N[C@@H](Cc1cccc(F)c1)C(=O)N[C@@H](CCCCN)C(=O)N1CCC[C@H]1C(=O)N1CCC[C@H]1C(N)=O [Peptide 31, Ac-(o) (h)KPP-NH2] (Ac-[dP][Phe(3-F)]KPP-NH2)
> 250 µM | CC(=O)N1CC=C[C@H]1C(=O)N[C@@H](Cc1cccc(F)c1)C(=O)N[C@@H](CCCCN)C(=O)N1CCC[C@H]1C(=O)N1CCC[C@H]1C(N)=O [Peptide 32, Ac-(p) (h)KPP-NH2] (Ac-[ΔPro][Phe(3-F)]KPP-NH2)
> 250 µM | CC(=O)N1CC[C@H]1C(=O)N[C@@H](Cc1cccc(F)c1)C(=O)N[C@@H](CCCCN)C(=O)N1CCC[C@H]1C(=O)N1CCC[C@H]1C(N)=O [Peptide 33, Ac-(q) (h)KPP-NH2] (Ac-[Aze][Phe(3-F)]KPP-NH2)
122 ± 9.8 µM | CC(=O)N1CCCC[C@H]1C(=O)N[C@@H](Cc1cccc(F)c1)C(=O)N[C@@H](CCCCN)C(=O)N1CCC[C@H]1C(=O)N1CCC[C@H]1C(N)=O [Peptide 35, Ac-(s) (h)KPP-NH2] (Ac-[Pip][Phe(3-F)]KPP-NH2)
14.5 ± 2.9 µM | CC(=O)N1C[C@H](F)C[C@H]1C(=O)N[C@@H](Cc1cccc(F)c1)C(=O)N[C@@H](CCCCN)C(=O)N1CCC[C@H]1C(=O)N1CCC[C@H]1C(N)=O [Peptide 36, Ac-(t) (h)KPP-NH2] (Ac-[Pro(trans-4-F)][Phe(3-F)]KPP-NH2)
21.6 ± 2.6 µM | CC(=O)N(O)CCCC[C@H](NC(=O)[C@H](Cc1cccc(F)c1)NC(=O)[C@@H]1CSCN1C(C)=O)C(=O)N1CCC[C@H]1C(=O)N1CCC[C@H]1C(N)=O [Peptide 38, Ac-(r) (h) (v)PP-NH2] (Ac-[Thz][Phe(3-F)][X1]PP-NH2)
28.3 ± 2.8 µM | CC(=O)CN(CCCC[C@H](NC(=O)[C@H](Cc1cccc(F)c1)NC(=O)[C@@H]1CSCN1C(C)=O)C(=O)N1CCC[C@H]1C(=O)N1CCC[C@H]1C(N)=O)C(C)=O [Peptide 39, Ac-(r) (h) (w)PP-NH2] (Ac-[Thz][Phe(3-F)][X2]PP-NH2)
51.8 ± 0.8 µM | CC(=O)N[C@@H](CCCCN(O)C(C)=O)C(=O)N1CCC[C@H]1C(=O)N[C@@H](C)C(=O)N[C@H](C(=O)N[C@@H](CCCCN)C(N)=O)[C@@H](C)O [Peptide 40, Ac-(v)PATK-NH2] (Ac-[X1]PATK-NH2)
96.2 ± 12.6 µM | CC(=O)CN(CCCC[C@H](NC(C)=O)C(=O)N1CCC[C@H]1C(=O)N[C@@H](C)C(=O)N[C@H](C(=O)N[C@@H](CCCCN)C(N)=O)[C@@H](C)O)C(C)=O [Peptide 41, Ac-(w)PATK-NH2] (Ac-[X2]PATK-NH2)
59.8 ± 6.5 µM | CC(=O)N[C@@H](CCCCN)C(=O)N1CCC[C@H]1C(=O)N[C@@H](C)C(=O)N[C@H](C(=O)N[C@@H](CCCCN(O)C(C)=O)C(N)=O)[C@@H](C)O [Peptide 42, Ac-KPAT(v)-NH2] (Ac-KPAT[X1]-NH2)
72.6 ± 9.5 µM | CC(=O)CN(CCCC[C@H](NC(=O)[C@@H](NC(=O)[C@H](C)NC(=O)[C@@H]1CCCN1C(=O)[C@H](CCCCN)NC(C)=O)[C@@H](C)O)C(N)=O)C(C)=O [Peptide 43, Ac-KPAT(w)-NH2] (Ac-KPAT[X2]-NH2)
126 ± 22.6 µM | CC(=O)CN(CCCC[C@H](NC(=O)[C@@H](NC(=O)[C@H](C)NC(=O)[C@@H]1CCCN1C(=O)[C@H](CCCCN(O)C(C)=O)NC(C)=O)[C@@H](C)O)C(N)=O)C(C)=O [Peptide 44, Ac-(v)PAT(w)-NH2]
